Results published in ChEMBL document CHEMBL1133333, “Structural comparison between type I and type II antagonists: possible implications in the drug design of AT1 antagonists” (Bioorg Med Chem Lett, 2000).

biological target: T1, Angiotensin II receptor (AT-1) type-1 (Rattus norvegicus, UniProt P29089+P25095); test: Antagonistic activity against Angiotensin II receptor type 1 in rat uterus; assay type: functional, tissue-based
T1 sequence (P29089 whole entry): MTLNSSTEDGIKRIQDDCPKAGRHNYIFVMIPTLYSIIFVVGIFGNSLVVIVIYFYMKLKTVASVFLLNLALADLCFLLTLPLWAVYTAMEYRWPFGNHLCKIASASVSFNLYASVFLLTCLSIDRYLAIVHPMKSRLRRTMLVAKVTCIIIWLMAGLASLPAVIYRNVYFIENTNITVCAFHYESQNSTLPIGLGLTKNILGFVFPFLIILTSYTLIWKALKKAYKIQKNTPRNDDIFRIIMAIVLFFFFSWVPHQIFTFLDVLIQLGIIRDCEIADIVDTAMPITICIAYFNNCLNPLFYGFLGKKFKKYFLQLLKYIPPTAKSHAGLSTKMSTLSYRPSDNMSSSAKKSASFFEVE
T1 sequence (P25095 whole entry): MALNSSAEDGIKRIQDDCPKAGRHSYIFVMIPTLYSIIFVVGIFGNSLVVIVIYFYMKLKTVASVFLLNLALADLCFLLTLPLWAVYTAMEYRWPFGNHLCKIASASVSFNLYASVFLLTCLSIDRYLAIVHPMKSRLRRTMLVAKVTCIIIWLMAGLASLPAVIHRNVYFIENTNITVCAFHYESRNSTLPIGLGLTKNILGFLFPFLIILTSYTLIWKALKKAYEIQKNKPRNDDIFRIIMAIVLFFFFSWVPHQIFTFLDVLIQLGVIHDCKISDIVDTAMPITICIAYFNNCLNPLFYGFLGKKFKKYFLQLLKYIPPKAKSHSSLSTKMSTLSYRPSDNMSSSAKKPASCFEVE

Row | SMILES | pA2
1 | CC[C@H](C)[C@H](NC(=O)[C@@H]1CCCN1C(=O)[C@H](Cc1c[nH]cn1)NC(=O)[C@@H](NC(=O)[C@H](Cc1ccc(OC)cc1)NC(=O)[C@@H](NC(=O)[C@H](CCCN=C(N)N)NC(=O)CNC)C(C)C)[C@@H](C)CC)C(=O)O | 6.6
2 | CC[C@H](C)[C@H](NC(=O)[C@H](Cc1ccc(O)cc1)NC(=O)[C@@H](NC(=O)[C@H](CCCN=C(N)N)NC(=O)[C@@H](N)CC(=O)O)C(C)C)C(=O)N[C@@H](Cc1c[nH]cn1)C(=O)N1CCC[C@H]1C(=O)N[C@@H](CCO)C(=O)O | 6.7
3 | CC[C@H](C)[C@H](NC(=O)[C@H](Cc1ccc(OC)cc1)NC(=O)[C@@H](NC(=O)[C@H](CCCN=C(N)N)NC(=O)CNC)C(C)C)C(=O)N[C@@H](Cc1c[nH]cn1)C(=O)N1CCC[C@H]1C(=O)N[C@@H](CCO)C(=O)O | 5.7
4 | CC[C@H](C)[C@H](NC(=O)[C@H](Cc1ccc(OC)cc1)NC(=O)[C@@H](NC(=O)[C@H](CCCN=C(N)N)NC(=O)[C@@H](N)CC(=O)O)C(C)C)C(=O)N[C@@H](Cc1c[nH]cn1)C(=O)N1CCC[C@H]1C(=O)N[C@@H](CCO)C(=O)O | 5.4
5 | CC[C@H](C)[C@H](NC(=O)[C@H](Cc1ccc(OC)cc1)NC(=O)[C@@H](NC(=O)[C@H](CCCN=C(N)N)NC(=O)CNC)C(C)C)C(=O)N[C@@H](Cc1c[nH]cn1)C(=O)N1CCC[C@H]1C(=O)N[C@@H](Cc1ccccc1)C(=O)O | 7.5
6 | CC[C@H](C)[C@H](NC(=O)[C@H](Cc1ccc(O)cc1)NC(=O)[C@@H](NC(=O)[C@@H](N)CCCN=C(N)N)C(C)C)C(=O)N[C@@H](Cc1c[nH]cn1)C(=O)N1CCC[C@H]1C(=O)N[C@@H](CCO)C(=O)O | < 4.8
7 | CC[C@H](C)[C@H](NC(=O)[C@H](Cc1ccc(OC)cc1)NC(=O)[C@@H](NC(=O)[C@@H](N)CCCN=C(N)N)C(C)C)C(=O)N[C@@H](Cc1c[nH]cn1)C(=O)N1CCC[C@H]1C(=O)N[C@@H](CCO)C(=O)O | < 4.8
8 | CC[C@H](C)[C@H](NC(=O)[C@H](Cc1ccc(O)cc1)NC(=O)[C@@H](NC(=O)[C@H](CCCN=C(N)N)NC(=O)CNC)C(C)C)C(=O)N[C@@H](Cc1c[nH]cn1)C(=O)N1CCC[C@H]1C(=O)N[C@@H](CCO)C(=O)O | 7.8
